Among the test systems are CHRF288-11; CMK; CMS; M07e; ML-2; MOLM-13; MV4-11; U937.
Holding throughout (design): species or system AML cell lines (8); Primary HTS, single concentration about 10 uM, Cell Titer Glo viability; log10 luminescence, per cent inhibition relative to cycloheximide control
Holding throughout (details): 72 h, relative to cycloheximide control, log10 luminescence, inhibitor
In general terms: ATP-based viability assays read luminescence as a measure of living cells.

SMILES strings stand for the structures. Where a name gives a salt, the structure may show the parent alone. Read-outs that look alike come from different tables or passages of the source.

Here are results for 16 molecules from PMC6522510 (Nature Communications, 2019).

As to `CCCCC1C(=O)N(c2ccccc2)N(c2ccccc2)C1=O` [SJ000285567-6, PHENYLBUTAZONE], the CHRF288-11 %inh with CHRF288-11 was -2.959%. Moreover, the CMK %inh in the experiment with CMK is reported as -7.117%. The CMS %inh in the experiment on CMS was -0.9956%. The M07e %inh in the experiment on M07e is 3.977%. Further, the ML-2 %inh in the experiment with ML-2 is reported as 1.616%. Also, the MOLM-13 %inh in the experiment with MOLM-13 was -1.33%. The MV4-11 %inh with MV4-11 was 1.406%. The U937 %inh in the experiment on U937 is recorded as -1.746%.

As for `O=c1c(-c2ccc(O)cc2)coc2cc(O)ccc12` [SJ000285588-6, DAIDZEIN], in the experiment on CHRF288-11, the CHRF288-11 %inh was 1.05%. The CMK %inh in the experiment on CMK is on record as -0.373%. The CMS %inh in the experiment with CMS is reported as -1.1%. Also, the M07e %inh in the experiment on M07e is on record as 1.994%. Moreover, the ML-2 %inh in the experiment with ML-2 is -1.236%. Also, the MOLM-13 %inh in the experiment with MOLM-13 is -0.07438%. Moreover, in the experiment with MV4-11, the MV4-11 %inh is listed as 0.1059%. Further, the U937 %inh in the experiment on U937 is recorded as -0.9488%.

As to `CCCCC[C@H](CC(=O)NO)C(=O)N[C@H](C(=O)N1CCC[C@H]1CO)C(C)C` [SJ000285589-6, ACTINONIN], the CHRF288-11 %inh with CHRF288-11 came to 7.871%. The CMK %inh with CMK came to 2.47%. In addition, the CMS %inh in the experiment with CMS is 4.96%. In the experiment with M07e, the M07e %inh is recorded as 6.094%. The ML-2 %inh in the experiment on ML-2 came to 7.53%. For the same molecule, the MOLM-13 %inh with MOLM-13 came to 22.93%. The MV4-11 %inh in the experiment with MV4-11 came out at 13.23%. Besides, the U937 %inh with U937 is 11.94%.

Consider `CCCCC1C(=O)N(c2ccccc2)N(c2ccc(O)cc2)C1=O` (centres unmarked) [SJ000285591-4, OXYPHENBUTAZONE], for which the CHRF288-11 %inh in the experiment on CHRF288-11 is -1.743%. Moreover, in the experiment with CMK, the CMK %inh was -9.457%. Besides, in the experiment with CMS, the CMS %inh is listed as 98.27%. In addition, in the experiment on M07e, the M07e %inh is reported as 119.6%. In addition, the ML-2 %inh in the experiment on ML-2 was 63.81%. Further, the MOLM-13 %inh in the experiment on MOLM-13 is on record as -3.833%. Moreover, the MV4-11 %inh in the experiment with MV4-11 was found to be 79.54%. Further, the U937 %inh in the experiment on U937 is recorded as 81.76%.

As for `CO[C@@]1(NC(=O)Cc2cccs2)C(=O)N2C(C(=O)O)=C(COC(N)=O)CS[C@@H]21` [SJ000285599-4, CEFOXITIN SODIUM], in the experiment with CHRF288-11, the CHRF288-11 %inh was -4.487%. In the experiment on CMK, the CMK %inh was 1.325%. For the same molecule, the CMS %inh in the experiment with CMS was -1.051%. Besides, the M07e %inh in the experiment on M07e is -3.67%. In addition, in the experiment on ML-2, the ML-2 %inh is -2.877%. Also, the MOLM-13 %inh in the experiment on MOLM-13 is given as 3.83%. Also, the MV4-11 %inh in the experiment on MV4-11 is on record as -5.193%. In addition, the U937 %inh in the experiment on U937 is on record as -1.811%.

Consider `CCCCNC(=O)NS(=O)(=O)c1ccc(C)cc1` [SJ000285613-7, TOLBUTAMIDE], for which the CHRF288-11 %inh in the experiment with CHRF288-11 is recorded as -1.378%. Further, the CMK %inh in the experiment on CMK is -3.705%. Moreover, the CMS %inh in the experiment on CMS was found to be 0.8795%. For the same molecule, the M07e %inh with M07e was -0.3777%. Also, the ML-2 %inh in the experiment on ML-2 is 1.608%. Also, the MOLM-13 %inh with MOLM-13 was -1.699%. Further, the MV4-11 %inh in the experiment on MV4-11 was 0.676%. Further, the U937 %inh with U937 is -1.884%.

As to `CC(C)[N+](C)(CCC(C(N)=O)(c1ccccc1)c1ccccc1)C(C)C` [SJ000285636-4, ISOPROPAMIDE IODIDE], in the experiment with CHRF288-11, the CHRF288-11 %inh came to 8.188%. Also, in the experiment on CMK, the CMK %inh is recorded as -6.961%. The CMS %inh with CMS is on record as -2.262%. In the experiment with M07e, the M07e %inh amounted to 2.458%. Also, in the experiment on ML-2, the ML-2 %inh is listed as -0.5962%. Besides, the MOLM-13 %inh in the experiment with MOLM-13 was determined as 19.61%. Besides, the MV4-11 %inh with MV4-11 is on record as -0.6779%. In the experiment on U937, the U937 %inh is -1.123%.

Regarding `COc1cccc(OC)c1C(=O)N[C@@H]1C(=O)N2[C@@H]1SC(C)(C)[C@@H]2C(=O)O` [SJ000285650-3, METHICILLIN SODIUM], the CHRF288-11 %inh in the experiment on CHRF288-11 is 120.3%. The CMK %inh with CMK is -1.148%. The CMS %inh with CMS is given as -3.883%. Moreover, the M07e %inh with M07e was -0.3426%. The ML-2 %inh with ML-2 is reported as -0.07595%. Also, the MOLM-13 %inh with MOLM-13 was -0.5712%. In addition, in the experiment on MV4-11, the MV4-11 %inh was -1.181%. Besides, in the experiment with U937, the U937 %inh was 1.642%.

Consider `CN(C)[C@@H]1C(=O)C(C(N)=O)=C(O)[C@@]2(O)C(=O)C3=C(O)c4c(O)cccc4[C@@](C)(O)[C@H]3[C@H](O)[C@@H]12` [SJ000285682-4, OXYTETRACYCLINE | OXYTETRACYCLINE DIHYDRATE | OXYTETRACYCLINE HYDROCHLORIDE | OXYTETRACYCLINE (TERRAMYCIN)], for which the CHRF288-11 %inh with CHRF288-11 was 25.02%. Further, the CMK %inh in the experiment on CMK is -2.364%. Besides, in the experiment with CMS, the CMS %inh is 0.1991%. Further, in the experiment on M07e, the M07e %inh is reported as -0.1554%. In addition, the ML-2 %inh with ML-2 amounted to 0.3169%. In the experiment on MOLM-13, the MOLM-13 %inh is on record as 3.957%. In the experiment on MV4-11, the MV4-11 %inh is recorded as -1.23%. The U937 %inh with U937 was found to be 0.3352%.

Regarding `Cn1c(=O)c2c(ncn2C)n(C)c1=O` [SJ000285694-6, CAFFEINE], the CHRF288-11 %inh in the experiment with CHRF288-11 is -2.164%. In addition, the CMK %inh in the experiment on CMK is recorded as -3.637%. Besides, the CMS %inh in the experiment on CMS came out at 0.8967%. Also, in the experiment with M07e, the M07e %inh is recorded as 4.484%. Besides, the ML-2 %inh in the experiment on ML-2 is reported as 0.4974%. Moreover, the MOLM-13 %inh with MOLM-13 is recorded as -2.617%. In the experiment with MV4-11, the MV4-11 %inh is listed as -1.738%. Also, in the experiment with U937, the U937 %inh is recorded as -2.594%.

Take `CCn1nc(C(=O)O)c(=O)c2cc3c(cc21)OCO3` [SJ000285711-7, CINOXACIN]: the CHRF288-11 %inh with CHRF288-11 turned out to be 0.6656%. Further, the CMK %inh in the experiment on CMK turned out to be 0.4853%. Further, in the experiment on CMS, the CMS %inh came out at 0.852%. For the same molecule, in the experiment on M07e, the M07e %inh is 5.282%. Also, the ML-2 %inh in the experiment with ML-2 is recorded as -1.975%. Moreover, in the experiment on MOLM-13, the MOLM-13 %inh came out at 1.821%. Moreover, the MV4-11 %inh with MV4-11 is 3.259%. In addition, in the experiment on U937, the U937 %inh is on record as 2.404%.

`CN(C)/N=N/c1[nH]cnc1C(N)=O` [SJ000285718-4, DACARBAZINE]: in the experiment on CHRF288-11, the CHRF288-11 %inh is 9.396%. For the same molecule, the CMK %inh in the experiment on CMK is reported as 31.68%. The CMS %inh in the experiment on CMS was -1.6%. For the same molecule, the M07e %inh with M07e is -1.918%. Further, the ML-2 %inh in the experiment on ML-2 was -0.5509%. For the same molecule, the MOLM-13 %inh in the experiment on MOLM-13 is 31.43%. In addition, the MV4-11 %inh in the experiment with MV4-11 was 4.433%. In addition, in the experiment with U937, the U937 %inh was determined as 1.118%.

Regarding `C#C[C@]1(O)CC[C@H]2[C@@H]3CCC4=Cc5oncc5C[C@]4(C)[C@H]3CC[C@@]21C` [SJ000285723-7, DANAZOL], the CHRF288-11 %inh in the experiment on CHRF288-11 stood at 3.76%. The CMK %inh in the experiment on CMK is on record as -0.5732%. For the same molecule, the CMS %inh with CMS was -0.3914%. Besides, the M07e %inh in the experiment with M07e was 0.05908%. In addition, the ML-2 %inh in the experiment on ML-2 is listed as 0.4162%. In the experiment with MOLM-13, the MOLM-13 %inh is recorded as 13.86%. In the experiment on MV4-11, the MV4-11 %inh is 3.859%. The U937 %inh with U937 was found to be 4.655%.

With `CC(=O)N(O)CCCCCNC(=O)CCC(=O)N(O)CCCCCNC(=O)CCC(=O)N(O)CCCCCN` [SJ000285725-5, DEFEROXAMINE MESYLATE], the CHRF288-11 %inh with CHRF288-11 (CHRF288-11 %inh, 10 µM) was determined as 11.75%. Also, the CMK %inh in the experiment with CMK (CMK %inh, 10 µM) came out at 30.74%. Moreover, in the experiment with CMS, the CMS %inh amounted to 49.53%. The M07e %inh in the experiment on M07e (M07e %inh, 10 µM) is on record as 9.207%. The ML-2 %inh with ML-2 (ML-2 %inh, 10 µM) was 13.98%. Also, the MOLM-13 %inh with MOLM-13 (MOLM-13 %inh, 10 µM) was 54.77%. Further, the MV4-11 %inh with MV4-11 (MV4-11 %inh, 10 µM) is 0.1216%. The U937 %inh with U937 is reported as 32.98%.

As to `C/C=C(/C(=C/C)c1ccc(O)cc1)c1ccc(O)cc1` [SJ000285735-4, DIENESTROL], the CHRF288-11 %inh in the experiment with CHRF288-11 (CHRF288-11 %inh, 10 µM) was -2.974%. Further, the CMK %inh in the experiment on CMK (CMK %inh, 10 µM) is given as 4.084%. Also, in the experiment with CMS (CMS %inh, 10 µM), the CMS %inh was -3.971%. Also, the M07e %inh in the experiment with M07e (M07e %inh, 10 µM) was -0.9445%. In addition, the ML-2 %inh with ML-2 (ML-2 %inh, 10 µM) is reported as 0.7684%. Moreover, the MOLM-13 %inh with MOLM-13 (MOLM-13 %inh, 10 µM) amounted to 3.801%. Besides, the MV4-11 %inh in the experiment with MV4-11 (MV4-11 %inh, 10 µM) is recorded as -1.794%. Besides, the U937 %inh with U937 (U937 %inh, 10 µM) came to 2.437%.

`C/C=C(/C(=C/C)c1ccc(O)cc1)c1ccc(O)cc1` [SJ000285735-5, DIENESTROL]: in the experiment on CHRF288-11 (CHRF288-11 %inh, 10 µM), the CHRF288-11 %inh is -2.147%. For the same molecule, in the experiment on CMK (CMK %inh, 10 µM), the CMK %inh is reported as 33.82%. For the same molecule, in the experiment on CMS (CMS %inh, 10 µM), the CMS %inh is given as -2.72%. Further, in the experiment with M07e (M07e %inh, 10 µM), the M07e %inh was determined as 2.558%. In the experiment with ML-2 (ML-2 %inh, 10 µM), the ML-2 %inh was 1.532%. For the same molecule, the MOLM-13 %inh in the experiment on MOLM-13 (MOLM-13 %inh, 10 µM) was 17.84%. For the same molecule, the MV4-11 %inh with MV4-11 (MV4-11 %inh, 10 µM) amounted to 1.913%. In the experiment on U937 (U937 %inh, 10 µM), the U937 %inh was 2.402%.
